Source: patent publication US9409884B2 (Rigel Pharmaceuticals, Inc., priority 2012, dated 2016)
pEC50: −log10 of the molar value.

Target: AMPK
Assay: AMPK activation, enzyme-linked immunosorbent assay
Type: biochemical
Conditions: Table 8, compounds of Table 1
Description: Compounds of Table 1 were assayed for their ability to activate AMPK using an enzyme-linked immunosorbent assay.
Compounds of Table 2 were assayed for their ability to activate AMPK using an enzyme-linked immunosorbent assay.
Compounds of Table 3 were assayed for their ability to activate AMPK using an enzyme-linked immunosorbent assay.
Compounds of Table 4 were assayed for their ability to activate AMPK using an enzyme-linked immunosorbent assay.
Compounds of Table 5 were assayed for their ability to activate AMPK using an enzyme-linked immunosorbent assay.
Compounds of Table 6 were assayed for their ability to activate AMPK using an enzyme-linked immunosorbent assay.
Compounds of Table 7 were assayed for their ability to activate AMPK using an enzyme-linked immunosorbent assay.

Compound	pEC50
N#Cc1ccc(CN2CCC(NC(=O)c3ccnc(OC4CCN(c5ccc(C(F)(F)F)cc5)CC4)c3)CC2)cc1 [Compound 1-21, N-(1-(4-cyanobenzyl)piperidin-4-yl)-2-(1-(4-(trifluoromethyl)phenyl)piperidin-4-yloxy) isonicotinamide]	6.30 to 7.00
O=C(NC1CCN(Cc2ccc(F)cc2)CC1)c1ccnc(OC2CCN(c3ccc(C(F)(F)F)cc3)CC2)c1 [Compound 1-22, N-(1-(4-fluorobenzyl)piperidin-4-yl)-2-(1-(4-(trifluoromethyl)phenyl)piperidin-4-yloxy) isonicotinamide]	5.30 to 6.00
CC(C)(C)OC(=O)N1CC[C@@H](NC(=O)c2ccc(OC3CCN(c4ccc(C(F)(F)F)cc4)CC3)cn2)C1 [Compound 1-23, (R)-tert-butyl 3-(5-(1-(4-(trifluoromethyl)phenyl)piperidin-4-yloxy)picolinamido) pyrrolidine-1-carboxylate]	6.30 to 7.00
O=C(N[C@@H]1CCNC1)c1ccc(OC2CCN(c3ccc(C(F)(F)F)cc3)CC2)cn1 [Compound 1-24, (R)-N-(pyrrolidin-3-yl)-5-(1-(4-(trifluoromethyl)phenyl)piperidin-4-yloxy) picolinamide]	5.00 to 5.30
O=C(N[C@@H]1CCN(Cc2ccncc2)C1)c1ccc(OC2CCN(c3ccc(C(F)(F)F)cc3)CC2)cn1 [Compound 1-25, (R)-N-(1-(pyridin-4-ylmethyl)pyrrolidin-3-yl)-5-(1-(4-(trifluoromethyl)phenyl)piperidin-4-yloxy)picolinamide]	6.30 to 7.00
CC(C)(C)OC(=O)N1CC[C@H](NC(=O)c2ccc(OC3CCN(c4ccc(C(F)(F)F)cc4)CC3)cn2)C1 [Compound 1-26, (S)-tert-butyl 3-(5-(1-(4-(trifluoromethyl)phenyl)piperidin-4-yloxy)picolinamido) pyrrolidine-1-carboxylate]	6.30 to 7.00
O=C(N[C@H]1CCNC1)c1ccc(OC2CCN(c3ccc(C(F)(F)F)cc3)CC2)cn1 [Compound 1-27, (S)-N-(pyrrolidin-3-yl)-5-(1-(4-(trifluoromethyl)phenyl)piperidin-4-yloxy)picolinamide]	< 5.00
N#Cc1ccc(CN2CCC(NC(=O)c3cc(OC4CCN(c5ccc(C(F)(F)F)cc5)CC4)ccn3)CC2)cc1 [Compound 1-28, N-(1-(4-cyanobenzyl)piperidin-4-yl)-4-(1-(4-(trifluoromethyl)phenyl)piperidin-4-yloxy)picolinamide]	> 7.00
O=C(NC1CCN(Cc2ccc(F)cc2)CC1)c1cc(OC2CCN(c3ccc(C(F)(F)F)cc3)CC2)ccn1 [Compound 1-29, N-(1-(4-fluorobenzyl)piperidin-4-yl)-4-(1-(4-(trifluoromethyl)phenyl)piperidin-4-yloxy)picolinamide]	6.30 to 7.00
O=C(N[C@H]1CCN(Cc2ccncc2)C1)c1ccc(OC2CCN(c3ccc(C(F)(F)F)cc3)CC2)cn1 [Compound 1-30, (S)-N-(1-(pyridin-4-ylmethyl)pyrrolidin-3-yl)-5-(1-(4-(trifluoromethyl)phenyl)piperidin-4-yloxy)picolinamide]	> 7.00
N#Cc1ccc(CN2CC[C@H](NC(=O)c3ccc(OC4CCN(c5ccc(C(F)(F)F)cc5)CC4)cn3)C2)cc1 [Compound 1-31, (S)-N-(1-(4-cyanobenzyl)pyrrolidin-3-yl)-5-(1-(4-(trifluoromethyl)phenyl)piperidin-4-yloxy) picolinamide]	> 7.00
O=C(N[C@H]1CCN(Cc2ccc(F)cc2)C1)c1ccc(OC2CCN(c3ccc(C(F)(F)F)cc3)CC2)cn1 [Compound 1-32, (S)-N-(1-(4-fluorobenzyl)pyrrolidin-3-yl)-5-(1-(4-(trifluoromethyl)phenyl)piperidin-4-yloxy) picolinamide]	6.30 to 7.00
N#Cc1ccc(CN2CC[C@@H](NC(=O)c3ccc(OC4CCN(c5ccc(C(F)(F)F)cc5)CC4)cn3)C2)cc1 [Compound 1-33, (R)-N-(1-(4-cyanobenzyl)pyrrolidin-3-yl)-5-(1-(4-(trifluoromethyl)phenyl)piperidin-4-yloxy) picolinamide]	6.00 to 6.30
O=C(N[C@@H]1CCN(Cc2ccc(F)cc2)C1)c1ccc(OC2CCN(c3ccc(C(F)(F)F)cc3)CC2)cn1 [Compound 1-34, (R)-N-(1-(4-fluorobenzyl)pyrrolidin-3-yl)-5-(1-(4-(trifluoromethyl)phenyl)piperidin-4-yloxy) picolinamide]	6.00 to 6.30
N#Cc1ccc(CN2CCC(NC(=O)c3ccc(OC4CCN(c5ccc(C(F)(F)F)cc5)CC4)nc3)CC2)cc1 [Compound 1-35, N-(1-(4-cyanobenzyl)piperidin-4-yl)-6-(1-(4-(trifluoromethyl)phenyl)piperidin-4-yloxy) nicotinamide]	6.30 to 7.00
O=C(NC1CCN(CCc2ccccc2)CC1)c1ccc(OC2CCN(c3ccc(C(F)(F)F)cc3)CC2)cn1 [Compound 1-36, N-(1-phenethylpiperidin-4-yl)-5-(1-(4-(trifluoromethyl)phenyl)piperidin-4-yloxy) picolinamide]	6.00 to 6.30

Compound	pEC50
O=C(NC1CCN(Cc2ccc3ccccc3c2)CC1)c1ccc(OC2CCN(c3ccc(C(F)(F)F)cc3)CC2)cn1 [Compound 1-37, N-(1-(naphthalen-2-ylmethyl)piperidin-4-yl)-5-(1-(4-(trifluoromethyl)phenyl)piperidin-4-yloxy)picolinamide]	6.00 to 6.30
O=C(NC1CCN(Cc2ccccc2)CC1)c1ccc(OC2CCN(c3ccc(C(F)(F)F)cc3)CC2)cn1 [Compound 1-38, N-(1-benzylpiperidin-4-yl)-5-(1-(4-(trifluoromethyl)phenyl)piperidin-4-yloxy)picolinamide]	5.30 to 6.00
CN(C)c1ccc(CN2CCC(NC(=O)c3ccc(OC4CCN(c5ccc(C(F)(F)F)cc5)CC4)cn3)CC2)cc1 [Compound 1-39, N-(1-(4-(dimethylamino)benzyl)piperidin-4-yl)-5-(1-(4-(trifluoromethyl)phenyl)piperidin-4-yloxy)picolinamide]	6.30 to 7.00
O=C(NC1CCN(Cc2ccc(N3CCOCC3)cc2)CC1)c1ccc(OC2CCN(c3ccc(C(F)(F)F)cc3)CC2)cn1 [Compound 1-40, N-(1-(4-morpholinobenzyl)piperidin-4-yl)-5-(1-(4-(trifluoromethyl)phenyl)piperidin-4-yloxy)picolinamide]	> 7.00
N#Cc1ccc(CN2CC(NC(=O)c3ccc(OC4CCN(c5ccc(C(F)(F)F)cc5)CC4)cn3)C2)cc1 [Compound 1-41, N-(1-(4-cyanobenzyl)azetidin-3-yl)-5-(1-(4-(trifluoromethyl)phenyl)piperidin-4-yloxy)picolinamide]	6.30 to 7.00
O=C(NC1CN(Cc2ccncc2)C1)c1ccc(OC2CCN(c3ccc(C(F)(F)F)cc3)CC2)cn1 [Compound 1-42, N-(1-(pyridin-4-ylmethyl)azetidin-3-yl)-5-(1-(4-(trifluoromethyl)phenyl)piperidin-4-yloxy)picolinamide]	5.30 to 6.00
O=C(NC1CCN(Cc2ccncc2)CC1)c1cccc(OC2CCN(c3ccc(C(F)(F)F)cc3)CC2)n1 [Compound 1-43, N-(1-(pyridin-4-ylmethyl)piperidin-4-yl)-6-(1-(4-(trifluoromethyl)phenyl)piperidin-4-yloxy)picolinamide]	5.30 to 6.00
O=C(NC1CCN(Cc2cncnc2)CC1)c1ccc(OC2CCN(c3ccc(C(F)(F)F)cc3)CC2)cn1 [Compound 1-44, N-(1-(pyrimidin-5-ylmethyl)piperidin-4-yl)-5-(1-(4-(trifluoromethyl)phenyl)piperidin-4-yloxy)picolinamide]	6.30 to 7.00
COC(=O)c1ccc(CN2CCC(NC(=O)c3ccc(OC4CCN(c5ccc(C(F)(F)F)cc5)CC4)nc3)CC2)cc1 [Compound 1-45, methyl 4-((4-(6-(1-(4-(trifluoromethyl)phenyl)piperidin-4-yloxy)nicotinamido)piperidin-1-yl)methyl)benzoate]	< 5.00
O=C(O)c1ccc(CN2CCC(NC(=O)c3ccc(OC4CCN(c5ccc(C(F)(F)F)cc5)CC4)nc3)CC2)cc1 [Compound 1-46, 4-((4-(6-(1-(4-(trifluoromethyl)phenyl)piperidin-4-yloxy)nicotinamido)piperidin-1-yl)methyl) benzoic acid]	5.30 to 6.00
O=C(NC1CCN(Cc2cn(C(c3ccccc3)(c3ccccc3)c3ccccc3)cn2)CC1)c1ccc(OC2CCN(c3ccc(C(F)(F)F)cc3)CC2)cn1 [Compound 1-47, 5-(1-(4-(trifluoromethyl)phenyl)piperidin-4-yloxy)-N-(1-((1-trityl-1H-imidazol-4-yl)methyl)piperidin-4-yl)picolinamide]	5.30 to 6.00
O=C(NC1CCN(Cc2c[nH]cn2)CC1)c1ccc(OC2CCN(c3ccc(C(F)(F)F)cc3)CC2)cn1 [Compound 1-48, N-(1-((1H-imidazol-4-yl)methyl)piperidin-4-yl)-5-(1-(4-(trifluoromethyl)phenyl)piperidin-4-yloxy)picolinamide]	5.30 to 6.00
CC(C)(C)OC(=O)NCCCNC(=O)c1ccc(OC2CCN(c3ccc(C(F)(F)F)cc3)CC2)cn1 [Compound 1-49, tert-butyl 3-(5-(1-(4-(trifluoromethyl)phenyl)piperidin-4-yloxy)picolinamido) propylcarbamate]	> 7.00
O=C(NCCCNCc1ccncc1)c1ccc(OC2CCN(c3ccc(C(F)(F)F)cc3)CC2)cn1 [Compound 1-50, N-(3-(pyridin-4-ylmethylamino)propyl)-5-(1-(4-(trifluoromethyl)phenyl)piperidin-4-yloxy)picolinamide]	5.30 to 6.00
O=S(=O)(NC1CCN(Cc2ccncc2)CC1)c1ccc(OC2CCN(c3ccc(C(F)(F)F)cc3)CC2)nc1 [Compound 1-51, N-(1-(pyridin-4-ylmethyl)piperidin-4-yl)-6-(1-(4-(trifluoromethyl)phenyl)piperidin-4-yloxy)pyridine-3-sulfonamide]	6.30 to 7.00
N#Cc1ccc(N2CCC(Oc3ccc(S(=O)(=O)NC4CCN(Cc5ccncc5)CC4)cn3)CC2)cc1 [Compound 1-52, N-(1-(pyridin-4-ylmethyl)piperidin-4-yl)-6-(1-(4-cyanophenyl)piperidin-4-yloxy)pyridine-3-sulfonamide]	6.30 to 7.00
